From patent publication US20220249415A1, “COMPOSITION OF AZELAIC ACID HAVING ADIPOSE TRIGLYCERIDE HYDROLYSIS EFFECT” (Korea University Research and Business Foundation, priority 2018, published 2022)

Columns and labels:
[1] = tested on: protein kinase A (PKA); assay: PKA kinase activity in 3T3-L1 adipocytes; format: cell-based, mouse; conditions: azelaic acid 50 μM, 2 hours
Excerpt: A representative protein regulating protein activities associated with signal transduction depending on a change in concentration of intracellular cAMP in the tissue cells is protein kinase A (PKA). Under general conditions, since an enzyme active site is blocked by a regulatory domain site of protein, a PKA activity is suppressed, but when the concentration of cAMP is increased, cAMP is bound to a regulatory site of PKA to expose an active site, such that the PKA activity is increased. In the present experiment, a change in PKA activity by azelaic acid was measured. The PKA activity was measured using an Enzo PKA kinase activity kit (Cat. #ADI-EKS-390A, Enzo Life Sciences, Korea).

[2] = Dose evaluation experiment, oral administration, body weight control; format: in vivo; conditions: 6 mg/kg of azelaic acid, 6 weeks
Description: Azelaic acid was orally administered for 6 weeks, and the body weight control effects of three doses (6, 17, 20 mg/kg) were compared. The commercially available anti-obesity drugs Xenical and Panbesy were used as positive controls. […] Similar results were also obtained when a secondary experiment was performed to confirm the results.

[3] = target: Olfr544 (Mus musculus, UniProt E9PX47); assay: CRE-luciferase reporter gene assay in Hana3A cell line transfected with Olfr544 expression vector; format: cell-based
Chain of Olfr544 (E9PX47 entry or part of it): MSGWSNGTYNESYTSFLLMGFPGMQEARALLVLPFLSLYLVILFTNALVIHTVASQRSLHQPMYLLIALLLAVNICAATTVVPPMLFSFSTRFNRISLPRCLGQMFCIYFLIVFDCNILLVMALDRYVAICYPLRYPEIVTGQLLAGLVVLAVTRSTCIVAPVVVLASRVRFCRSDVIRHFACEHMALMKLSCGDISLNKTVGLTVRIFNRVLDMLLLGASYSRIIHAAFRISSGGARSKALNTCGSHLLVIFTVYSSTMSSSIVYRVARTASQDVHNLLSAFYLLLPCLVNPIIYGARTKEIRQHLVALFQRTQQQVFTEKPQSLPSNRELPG
Description: In order to evaluate an activity of azelaic acid as an Olfr544 ligand in vitro assay, reporter gene assay was performed. Generally, a degree of gene expression of the olfactory receptor (OR) in tissue cells was low and a degree of protein expression also was low, such that research into the olfactory receptor was difficult. In order to solve this problem, a Hana3A cell line was supplied from a team led by professor Hiroaki Matsunami of Duke University and used in an experiment (Zhuang H., et al., Nat. Protocol, 3:1402-1413, 2008).
The reporter gene assay was performed as follows. First, after an Olfr544 expression vector and a cAMP response element (CRE)-Luciferase reporter vector were transfected into the Hana3A cell line, the transfected Hana3A cell line was treated with azelaic acid for 18 hours. Then, a luciferase activity was measured using a Firefly luciferase (FL) assay kit, and a dose response curve (DRC) was drawn based on the measured luciferase activity, thereby calculating a 50% effective concentration (EC50) corresponding to an index for determining an effect as a ligand (agonist).

[4] = tested on: 3T3-L1 adipocytes; assay: Intracellular cholesterol concentration (Amplex Red kit) in 3T3-L1 adipocytes; format: cell-based, mouse; conditions: azelaic acid 25 or 50 μM
Description: In order to confirm whether or not azelaic acid induces triglyceride hydrolysis in adipocytes by activating a cAMP-PKA-HSL signaling pathway, the adipocytes were directly treated with azelaic acid, and concentrations of intracellular lipids were measured. […] Then, a concentration of triglycerides was measured using a TG assay kit (BioVision, California, U.S.) and a concentration of cholesterol was measured using an Amplex Red cholesterol assay kit (Invitrogen, California, U.S.).

[5] = target: T1, OR2S2 (Homo sapiens, UniProt Q9NQN1); assay: siRNA knock-down of OR2S2 in HepG2 cells, fatty acid oxidation-related gene expression; format: cell-based; conditions: HepG2 cells during knock-down of OR2S2
T1 construct: endogenous in cells; host or cells: HepG2
T1 sequence (Q9NQN1 1-319): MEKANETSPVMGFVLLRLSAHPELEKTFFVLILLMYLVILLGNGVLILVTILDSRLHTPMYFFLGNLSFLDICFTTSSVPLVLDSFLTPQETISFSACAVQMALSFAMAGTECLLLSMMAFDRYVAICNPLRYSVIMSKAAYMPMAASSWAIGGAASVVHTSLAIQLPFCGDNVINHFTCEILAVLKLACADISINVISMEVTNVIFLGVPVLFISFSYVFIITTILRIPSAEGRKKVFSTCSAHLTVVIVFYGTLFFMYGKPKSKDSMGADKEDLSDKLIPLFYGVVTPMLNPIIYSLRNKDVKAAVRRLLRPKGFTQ
Excerpt: The gene expression of OR1E1, OR1K1, OR2K2, OR2S2, OR13C5, and OR51E2, corresponding to the top 6 receptors among 10 human olfactory receptors selected to be expressed in both adipose tissue and liver tissue while interacting with azelaic acid, was knocked down with siRNA in human-derived liver cell and adipocyte lines, namely HepG2 cells and hAMSC cells, respectively. Here, siRNAs that were used were OR1E2 siRNA (sc-93932), OR1K2 (sc-92810), OR2K2 (sc-92852), OR2S2 (sc-92505), OR13C5 (sc-92899), and OR51E2 (sc-76265), purchased from Santa Cruz Biotechnology Inc. (Dallas, Tx USA).
After knock-down treatment, the cell lines were treated with azelaic acid, and triglyceride hydrolysis and fatty acid oxidation-related gene expression in HepG2 cells as a human-derived liver cell line and hAMSC cells as a human-derived adipocyte line were measured.

[6] = tested on: hAMSC cells; assay: Treatment of human adipocyte line hAMSC with azelaic acid; format: cell-based; conditions: azelaic acid 50 μM
Description: The anti-obesity effect was confirmed by treating a human adipocyte line, namely hAMSC cells (Cell Bio, CEFO, Seoul Korea), with azelaic acid (50 μM).

[7] = tested on: hAMSC cells; assay: qPCR of anti-obesity gene in hAMSC cells, with OR2K2 knock-down; format: cell-based, human
Description: In-vitro equivalence confirmation: HepG2 cells, which are a human liver tissue cell line, and hAMSC cells, which are a human adipocyte line, were treated with azelaic acid and the anti-obesity gene was measured through a qPCR method.

[8] = tested on: 3T3-L1 adipocytes in which the Olfr544 gene was knocked-down; assay: cAMP, PKA activity and HSL phosphorylation in adipocytes in which Olfr544 gene was knocked-down; format: cell-based, mouse; conditions: Olfr544 shRNA transfected adipocytes treated with azelaic acid for 2 hours
Excerpt: After the Olfr544 gene was knocked-down in the mouse adipocytes, cAMP assay was confirmed by the method described in Example 4, PKA activity was confirmed by the method described in Example 5, and phosphorylation of HSL protein was confirmed by the method described in Example 6.

EC50 ([3]; Olfr544 + CRE-Luciferase reporter in Hana3A cells, 18 hours): 29.7 µM
Olfr544 activity ([3]; concentration range of 1 to 1000 μM): concentration-dependently increased
expression of fatty acid oxidation-related genes (PPARa, CTP1, Acox2) upon treatment with azelaic acid [5]: did not change
Compound: O=C(O)CCCCCCCC(=O)O [azelaic acid, nonanedioic acid]
PKA activity increased as compared to a control [1]: 113.8%
body weight [2]: Significant body weight reduction efficacy
concentration of intracellular cholesterol [4]: no significant change
cAMP-PKA signaling [6]: activated
calcium concentration [6]: no change
inositol phosphate (IP) concentration [6]: no change
release of glycerol [6]: promoted
expression of a triglyceride hydrolysis gene (qPCR) ([7]; adipocytes (hAMSC) treated with azelaic acid): increased
effect on gene expression when the OR2K2 gene was knocked down ([7]; human adipocyte line (hAMSC)): disappear
cAMP-PKA-HSL signaling pathway [8]: all inactivated
